Patent publication US11607446B2, “Personalized immunotherapy against several neuronal and brain tumors” (Immatics Biotechnologies GmbH, priority 2013, dated 2023)
Where no end group is shown, it is not given here.

System: CD8+ T cells
Assay: In vitro immunogenicity of HLA-A*02 class I peptides: in vitro T-cell priming with aAPCs loaded with peptide/MHC complexes and anti-CD28 antibody, pMHC multimer readout
Type: cell-based, human
Settings: HLA-A*02 peptides; for Donors / Donors (percentage in brackets): healthy donors; for Donors: specific multimer+ CD8+ T-cell line after in vitro stimulation; for Wells: in vitro stimulated wells of healthy donors' CD8+ T cells, specific multimer+ readout

## KLADQYPHL (listed as Homo sapiens) [SOX-001]
  Donors: ++++ (>70% = ++++)
  Wells: + (<20% = +)

## SLADFMQEV (listed as Homo sapiens) [CNOT1-002]
  Donors: ++ (20%-49 % = ++)
  Wells: + (<20% = +)

## AVVEFLTSV (listed as Homo sapiens) [DROSHA-001]
  Donors: ++ (20%-49 % = ++)
  Wells: + (<20% = +)

## RLISKFDTV (listed as Homo sapiens) [EIF4E-001]
  Donors: +++ (50%-70% = +++)
  Wells: + (<20% = +)

## TLTNIIHNL (listed as Homo sapiens) [ORMDL1-002]
  Donors: +++ (50%-70% = +++)
  Wells: + (<20% = +)

## LLYTGDLEAL (listed as Homo sapiens) [NPAS3-001]
  Donors: ++ (20%-49 % = ++)
  Wells: + (<20% = +)

## FLVDGSWSI (listed as Homo sapiens) [COL20-001]
  Donors: ++ (20%-49 % = ++)
  Wells: + (<20% = +)

## LTFGDVVAV (listed as Homo sapiens) [FABP7-001]
  Donors: ++++ (>70% = ++++)
  Wells: + (<20% = +)

## KVFAGIPTV (listed as Homo sapiens) [PTP-005]
  Donors: ++++ (>70% = ++++)
  Wells: ++ (20%-49 % = ++)

## KLFDSDPITVTV (listed as Homo sapiens) [CLU-001]
  Donors: ++ (20%-49 % = ++)
  Wells: + (<20% = +)

## VLIQDVPTL (listed as Homo sapiens) [GRI-002]
  Donors: ++ (20%-49 % = ++)
  Wells: + (<20% = +)

## AIIDGVESV (listed as Homo sapiens) [PTP-003]
  Donors: ++++ (>70% = ++++)
  Wells: + (<20% = +)

## AMTQLLAGV (listed as Homo sapiens) [TNC-001]
  Donors: ++ (20%-49 % = ++)
  Wells: + (<20% = +)

## FLYKVILSL (listed as Homo sapiens) [PTP-002]
  Donors: +++ (50%-70% = +++)
  Wells: + (<20% = +)

## ILFEINPKL (listed as Homo sapiens) [ABCA13-001]
  Donors: ++ (20%-49 % = ++)
  Wells: + (<20% = +)

## LLQDRLVSV (listed as Homo sapiens) [PLEKHA4-001]
  Donors: +++ (50%-70% = +++)
  Wells: + (<20% = +)

## GLLDQIQAL (listed as Homo sapiens) [NLGN4X-002]
  Donors: ++ (20%-49 % = ++)
  Wells: + (<20% = +)

## RVAS*PTSGV (RVASPTSGV; not fully specified (residue 4); printed as RVAS*PTSGV; listed as Homo sapiens) [IRS-001]
  Donors: +++ (50%-70% = +++)
  Wells: + (<20% = +)

## TMMSRPPVL (listed as Homo sapiens) [WLS-002]
  Donors: +++ (50%-70% = +++)
  Wells: + (<20% = +)

## ALGDIREV (listed as Homo sapiens) [ANKRD40-001]
  Donors: +++ (50%-70% = +++)
  Wells: + (<20% = +)

## LLYDAVHIV (listed as Homo sapiens) [GRIK3-001]
  Donors: ++++ (>70% = ++++)
  Wells: + (<20% = +)

## GLPSGAPPGV (listed as Homo sapiens) [MTSS1L-001]
  Donors (percentage in brackets): 100%
  Donors: ++++ (>70% = ++++)
  Wells: +++ (50%-70% = +++)

## LTAPPEALLMV (listed as Homo sapiens) [NOC4-001]
  Donors: +++ (50%-70% = +++)
  Wells: + (<20% = +)

## ILIDWLVQV (listed as Homo sapiens) [CCNB1-002]
  Donors: +++ (50%-70% = +++)
  Wells: + (<20% = +)

## GVLENIFGV (listed as Homo sapiens) [PCNXL3-001]
  Donors: ++ (20%-49 % = ++)
  Wells: + (<20% = +)

## GLDPSSGAIHV (listed as Homo sapiens) [PCDHGC5-001]
  Donors (percentage in brackets): 100%
  Donors: ++++ (>70% = ++++)
  Wells: + (<20% = +)

## FLYNEALYSL (listed as Homo sapiens) [DPP3-001]
  Donors: +++ (50%-70% = +++)
  Wells: + (<20% = +)

## TMLARLASA (listed as Homo sapiens) [CSP-001]
  Donors: +++ (50%-70% = +++)
  Wells: + (<20% = +)

## SLDTLMTYV (listed as Homo sapiens) [NLGN4Y-001]
  Donors: ++++ (>70% = ++++)
  Wells: + (<20% = +)

## KLGDFGLATVV (listed as Homo sapiens) [DCA-001]
  Donors: ++ (20%-49 % = ++)
  Wells: + (<20% = +)

## ALADIAVGV (listed as Homo sapiens) [ADORA3-001]
  Donors: ++ (20%-49 % = ++)
  Wells: + (<20% = +)

## MLFGHPLLVSV (listed as Homo sapiens) [USP11-001]
  Donors: ++++ (>70% = ++++)
  Wells: ++ (20%-49 % = ++)

## NLDTLMTYV (listed as Homo sapiens) [NLGN4X-001]
  Donors (percentage in brackets): 100%
  Donors: ++++ (>70% = ++++)
  Wells: ++ (20%-49 % = ++)

## GMMTAILGV (listed as Homo sapiens) [SLC35E1-002]
  Donors: ++ (20%-49 % = ++)
  Wells: + (<20% = +)

## GLWHHQTEV (listed as Homo sapiens) [NRC AM-001]
  Donors (percentage in brackets): 100%
  Donors: ++++ (>70% = ++++)
  Wells: + (<20% = +)

## SLWGGDVVL (listed as Homo sapiens) [VPS13B-001]
  Donors (percentage in brackets): 100%
  Donors: ++++ (>70% = ++++)
  Wells: ++ (20%-49 % = ++)

## TLWYRAPEV (listed as Homo sapiens) [CDK4-001]
  Donors: ++++ (>70% = ++++)
  Wells: ++ (20%-49 % = ++)

## SLAERLFFQV (listed as Homo sapiens) [NAT8L-001]
  Donors: ++++ (>70% = ++++)
  Wells: + (<20% = +)

## EILDYIYEV (listed as Homo sapiens) [ASIC4-001]
  Donors: ++ (20%-49 % = ++)
  Wells: + (<20% = +)

## AVAPGPWKV (listed as Homo sapiens) [MAGI2-001]
  Donors: ++ (20%-49 % = ++)
  Wells: + (<20% = +)

## TLLAAEFLKQV (listed as Homo sapiens) [CCT-001]
  Donors: +++ (50%-70% = +++)
  Wells: + (<20% = +)

## RLGIKPESV (listed as Homo sapiens) [CSRP2-001]
  Donors (percentage in brackets): 100%
  Donors: ++++ (>70% = ++++)
  Wells: ++ (20%-49 % = ++)

## KLCEGFNEV (listed as Homo sapiens) [CHCHD2-005]
  Donors: +++ (50%-70% = +++)
  Wells: + (<20% = +)

## YLPTFFLTV (listed as Homo sapiens) [ELOVL2-001]
  Donors: ++++ (>70% = ++++)
  Wells: + (<20% = +)

## LLLGSPAAA (listed as Homo sapiens) [SEZ6L-001]
  Donors: ++++ (>70% = ++++)
  Wells: + (<20% = +)

## VLCGPPPAV (listed as Homo sapiens) [NC AN-001]
  Donors (percentage in brackets): 100%
  Donors: ++++ (>70% = ++++)
  Wells: + (<20% = +)

## ALTTLMHQL (listed as Homo sapiens) [PTP-001]
  Donors: ++ (20%-49 % = ++)
  Wells: + (<20% = +)

## LLWGNAIFL (listed as Homo sapiens) [KIF1A-001]
  Donors: +++ (50%-70% = +++)
  Wells: ++ (20%-49 % = ++)

## FLWSDGVPL (listed as Homo sapiens) [BCA-003]
  Donors: ++ (20%-49 % = ++)
  Wells: + (<20% = +)

## MIWEHNVEV [PTP-013]
  Donors: ++++ (>70% = ++++)
  Wells: + (<20% = +)

## RVADYIVKV [SLC10A4-002]
  Donors: +++ (50%-70% = +++)
  Wells: + (<20% = +)

## ALFNKGGSVFL (listed as Homo sapiens) [GPR98-001]
  Donors: ++ (20%-49 % = ++)
  Wells: + (<20% = +)

## SLYKGLLSV (listed as Homo sapiens) [RAD54B-001]
  Donors (percentage in brackets): 100%
  Donors: ++++ (>70% = ++++)
  Wells: ++ (20%-49 % = ++)

## KLVEFDFLGA (listed as Homo sapiens) [TACC3-001]
  Donors: ++ (20%-49 % = ++)
  Wells: + (<20% = +)

## ILFPDIIARA (listed as Homo sapiens) [MAGEF1-001]
  Donors: ++++ (>70% = ++++)
  Wells: ++ (20%-49 % = ++)

## KLTDIQIEL (listed as Homo sapiens) [JAK-001]
  Donors: ++ (20%-49 % = ++)
  Wells: + (<20% = +)

## SLGLFLAQV (listed as Homo sapiens) [SCARA3-001]
  Donors: ++ (20%-49 % = ++)
  Wells: + (<20% = +)

## ALAFKLDEV (listed as Homo sapiens) [SLC10A4-001]
  Donors: +++ (50%-70% = +++)
  Wells: ++ (20%-49 % = ++)

## NILEQIVSV (listed as Homo sapiens) [GRI-001]
  Donors: ++ (20%-49 % = ++)
  Wells: + (<20% = +)

## GLSEFTEYL (listed as Homo sapiens) [MAP1B-002]
  Donors: ++ (20%-49 % = ++)
  Wells: + (<20% = +)

## FLLPDTDGLTAL (listed as Homo sapiens) [PTP-012]
  Donors: ++ (20%-49 % = ++)
  Wells: + (<20% = +)

## NLLAEIHGV (listed as Homo sapiens) [DPYSL4-001]
  Donors: ++ (20%-49 % = ++)
  Wells: + (<20% = +)

## FLDSKFYLL (listed as Homo sapiens) [MAP1B-001]
  Donors: +++ (50%-70% = +++)
  Wells: + (<20% = +)

## ALWAWPSEL (listed as Homo sapiens) [BCA-002]
  Donors (percentage in brackets): 100%
  Donors: ++++ (>70% = ++++)
  Wells: ++++ (>70% = ++++)

## KIQEILTQV (listed as Homo sapiens) [IGF2BP3-001]
  Donors: +++ (50%-70% = +++)
  Wells: + (<20% = +)

## YQDPHSTAV (listed as Homo sapiens) [EGFR-008]
  Donors: ++ (20%-49 % = ++)
  Wells: + (<20% = +)

## KVFDEVIEV (listed as Homo sapiens) [GYG2-001]
  Donors: ++ (20%-49 % = ++)
  Wells: + (<20% = +)
